Assay [1] relates to Plasmodium falciparum. The assay is described as follows: Antiplasmodial activity after 36 hrs against chloroquine-sensitive Plasmodium falciparum FCA 20 in human erythrocytes by [3H]hypoxanthine uptake. The format is functional, organism-based.
The subject of assay [2] is Plasmodium falciparum. The assay can be described thus: Antiplasmodial activity after 36 hrs against chloroquine-resistant Plasmodium falciparum W2 in human erythrocytes by [3H]hypoxanthine uptake. The class given is functional, organism-based.

The structures appear in SMILES notation. Values after ≈ are worked out from the molar mass of the structure shown.

The IC50 is the midpoint of a concentration-inhibition curve. Low readings indicate inhibition by little substance, high ones a need for much substance. With `C/C=C1\CN2CCc3c([nH]c4ccccc34)[C@@H]2C[C@@H]1Cc1nccc2c1[nH]c1ccc(O)cc12`, the IC50 in the assay on Plasmodium falciparum [1] is 0.48 µg/mL (≈ 1.07 µM); in the assay with Plasmodium falciparum [2], 0.16 µg/mL (≈ 0.357 µM).

With `C/C=C1/CN2CCc3c([nH]c4ccccc34)[C@@H]2C[C@@H]1Cc1nccc2c1[nH]c1ccc(O)cc12`, the values for the half-inhibitory concentration (IC50) in the assay with Plasmodium falciparum [1] and in the assay with Plasmodium falciparum [2] were 0.113 µg/mL (≈ 0.252 µM) and 0.122 µg/mL (≈ 0.272 µM), respectively.

Regarding `C/C=C1/CN2CCc3c([nH]c4ccccc34)[C@@H]2C[C@@H]1Cc1nccc2c1[nH]c1ccccc12` [USAMBARENSINE], the IC50 in the assay on Plasmodium falciparum [1] is 0.655 µg/mL (≈ 1.51 µM); in the assay on Plasmodium falciparum [2], 0.265 µg/mL (≈ 0.613 µM).

(Values after ChEMBL document CHEMBL1141829, “10'-Hydroxyusambarensine, a new antimalarial bisindole alkaloid from the roots of Strychnos usambarensis” (J Nat Prod, 1999).)
